Test results reported in patent US20240366813A1, “PEPTIDE-UREA DERIVATIVE, PHARMACEUTICAL COMPOSITION CONTAINING SAME AND APPLICATION THEREOF” (Bivision Pharmaceuticals, Inc., priority 0001, published 2024).
Blank lines part the entries; values can stand above or below the compound they belong to.

Assays:
[1] = molecular target: PSMA protein (Homo sapiens (Human), UniProt Q04609); assay: In vitro binding test of compound and PSMA protein (Biacore); details: Biacore 8K, 15° C., 1:1 binding model, KD in M; for Kd: read-out: pkD (pKD=−Log KD, binding affinity to PSMA protein) (converted)
Procedure: A Biacore 8K (Cytiva) instrument was used to determine the binding affinity of disclosed compounds to the PSMA protein (Sinobiological). The PSMA protein was captured on SA chips. Before immobilizing the disclosed compounds (flow path 1 and 2, flow rate 10 μL/min), the PSMA protein was immobilized on flow path 2 by using flow buffer (10 μg/ml, flow rate 5 μL/min, injection time 600 s), and 1M NaCl was injected three times consecutively into 50 mM NaOH to condition the sensor surface. After each disclosed compounds injection, isopropanol in 1M NaCl and 50 mM NaOH was used for additional washing (flow path 1, 2, flow rate 10 μL/min, injection time 60 s).
All compounds were dissolved in 100% DMSO and diluted to 10 mM, and then diluted in test buffer (PBS, pH 7.4, 1 mM TCEP ([…]), 0.05% P20, 2% dimethyl sulfoxide) at an appropriate highest concentration. Analytes were run using the following conditions: 15° C. analysis temperature, analysis steps=all set to LMW kinetics; cycle type=single cycle (90 s contact time, 1800 s separation time, 30 ul/min flow rate, channels 1, 2); channel detection=2-1). Data were evaluated using Biacore Insight evaluation software, and data were fit to a 1:1 binding model.
Biacore results are shown in Table 12: pKD=−Log KD, where KD is the binding affinity of the compounds to PSMA protein measured by Biacore. KD is expressed by KD (M)=Kd (1/s)/Ka (1/Ms).

[2] = tested on: 22rv1 xenograft tumor; assay: Pharmacodynamic study in 22rv1 mouse xenograft tumor model (effect example 11); type: in vivo, mice; details: for TGITV (relative tumor inhibition rate): Day 19; for Tumor volume, Administration in groups Day 19: mean ± standard error
[3] = tested on: plasma protein; assay: Determination of plasma protein binding (PPB); type: in vitro ADME; details: ^177Lu-labeled, 37° C., 10 min, ultrafiltration, FIG. 6
Procedure: Three EP tubes were taken, and 0.2 mL of plasma and 50 μL of ^177Lu-labeled compound were added to each tube. The mixture was incubated in a thermostat at 37° C. for 10 min, and then taken out and added to ultrafiltration tubes, respectively. The ultrafiltration tubes were centrifuged at 13,000 rpm for 45 min. 50 μL of normal saline was then added, and the mixture was centrifuged for another 15 minutes. The radioactive counts per minute of each tube casing and filtrate were then measured. PPB was calculated, and the mean of 3 tubes was recorded. PPB=[(supernatant counts-background counts)]/(subnatant counts+supernatant counts−2*background counts)]*100.

[4] = tested on: PSMA-positive (22RV1) tumor; assay: Specificity test, PET/CT in PSMA-positive (22RV1) tumor-bearing mice with and without PMPA; type: in vivo; details: ^68Ga-E3 co-injected with PMPA (2 mg/Kg), FIG. 4
Procedure: The ^68Ga-E3 radiolabeled compound was injected into the tail vein of PSMA-positive (22RV1) tumor-bearing mice (Jiangsu Huajing Molecular Imaging and Drug Research Institute Co., Ltd.) (about 7.4 MBq/mouse, specific activity: 22423.82 KBq/μg) ([…]). After administration, PET/CT was used for 1 h dynamic scanning, medium resolution whole body CT, and 10 min static scanning at 2 h and 3 h. It can be clearly seen from FIG. 3 that the drug is rapidly distributed into the animal body after administration, and the drug is rapidly metabolized by the kidneys and excreted from the body over time.
The next day, the mixture of ^68Ga-E3 and PSMA standard PMPA (2 mg/Kg) was injected into the tail vein of PSMA-positive tumor-bearing mice (about 7.4 MBq/mouse, specific activity: 22423.82 KBq/μg) (50 uCi). After administration, PET/CT was used for 1 h dynamic scanning, medium resolution whole body CT, and 10 min static scanning at 2 h and 3 h. The results are depicted in detailed in FIG. 4.
PMPA is a specific inhibitor of PSMA. When PMPA is administered together with ^68Ga-E3, ^68Ga-E3 and PMPA are rapidly distributed to various organs in the animal body. However, PMPA occupies the PSMA target on the tumor, thus preventing the binding of ^68Ga-E3 to PSMA on the tumor.

[5] = Determination of Log P (n-octanol/water); type: physicochemical; details: room temperature, FIG. 5
Procedure: Three EP tubes were taken, and 0.5 mL of saturated n-octanol and 480 μL of ultrapure water were added into each EP tube. 20 μL (about 1 MBq) solution of E series compounds and reference compound were then added respectively. The mixture was shaken evenly and then centrifuged at room temperature (2000 r/min, 5 min, centrifugal radius: 10 cm). 100 μL was taken from the lipid layer and aqueous layer of each tube, and the radioactive counts per minute of the two phases were measured. The Log P value was calculated and the results were averaged.

[6] = tested on: LNCAP cells; assay: Cell binding test on LNCAP cells; type: cell-based; details: ^177Lu-labeled, on ice 2 hours, FIG. 1
Procedure: LNCAP cells in the logarithmic growth phase (Obio Technology (Shanghai) Corp., Ltd.) were made into a cell suspension. The cell suspension was adjusted to a cell density of 2×10^5/ml and inoculated 1 mL into a 24-well cell culture plate. Cells were incubated in an incubator at 37° C. for 48 hours. Three hours before the test, the medium was replaced with serum-free RPMI1640 medium (NEWZERUM), the cell culture medium was aspirated, and the cells were washed once with PBS. Serum-free RPMI1640 medium was used to prepare ^177Lu-E series compounds at concentrations of 32, 16, 8, 4, 1, 0.5, 0.1, 0.02, 0.01, 0.002 uCi/mL. The original medium was discarded, and then 1 mL of the prepared solution containing ^177Lu-E series compounds was added to each well. The plate was placed on ice for 2 hours, and then the cells were washed three times with 0.5 mL of ice-cold PBS. The washing solution was aspirated, and the cells were lysed with 0.5 mL of 1M NaOH and washed twice with 0.5 mL of PBS, and the sodium hydroxide (0.5 mL) and PBS (0.5 mL×2) solutions were collected. The uptake counts were determined.

[7] = 300 μCi of ^177Lu-labeled test sample
[8] = 600 μCi of ^177Lu-labeled test sample

Sequence of PSMA protein (Q04609 whole entry): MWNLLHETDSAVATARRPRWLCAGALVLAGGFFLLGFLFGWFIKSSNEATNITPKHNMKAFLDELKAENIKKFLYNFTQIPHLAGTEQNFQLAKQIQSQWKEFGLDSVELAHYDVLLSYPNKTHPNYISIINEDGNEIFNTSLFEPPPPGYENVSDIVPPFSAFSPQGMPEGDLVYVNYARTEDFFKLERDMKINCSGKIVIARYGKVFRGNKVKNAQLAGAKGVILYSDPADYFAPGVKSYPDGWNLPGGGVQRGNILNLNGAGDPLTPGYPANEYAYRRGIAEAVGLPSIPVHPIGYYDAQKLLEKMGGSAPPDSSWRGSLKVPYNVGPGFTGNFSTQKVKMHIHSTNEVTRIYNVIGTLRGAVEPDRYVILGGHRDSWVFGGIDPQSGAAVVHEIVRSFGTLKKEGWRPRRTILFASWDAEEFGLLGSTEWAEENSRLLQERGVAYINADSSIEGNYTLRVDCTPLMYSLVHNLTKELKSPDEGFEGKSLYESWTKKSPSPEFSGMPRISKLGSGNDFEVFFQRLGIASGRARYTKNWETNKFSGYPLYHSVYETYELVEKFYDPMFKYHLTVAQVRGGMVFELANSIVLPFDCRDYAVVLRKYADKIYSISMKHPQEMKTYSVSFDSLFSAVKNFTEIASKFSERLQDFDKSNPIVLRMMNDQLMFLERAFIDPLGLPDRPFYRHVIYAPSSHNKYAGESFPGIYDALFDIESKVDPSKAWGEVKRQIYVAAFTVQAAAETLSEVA

Structure (SMILES): O=C(O)CC[C@H](NC(=O)NC(CCCCNC(=O)[C@H](Cc1ccc2ccccc2c1)NC(=O)C1CCC2(CC1)CN(C(=O)CN1CCN(CC(=O)O)CCN(CC(=O)O)CCN(CC(=O)O)CC1)C2)C(=O)O)C(=O)O (stereo partly shown) [Compound E2]
Kd [1]: 0.229 nM

Structure (SMILES): O=C(O)CC[C@H](NC(=O)NC(CCCCNC(=O)[C@H](Cc1ccc2ccccc2c1)NC(=O)c1ccc2c(c1)CCN(C(=O)CN1CCN(CC(=O)O)CCN(CC(=O)O)CCN(CC(=O)O)CC1)C2)C(=O)O)C(=O)O (stereo partly shown) [Compound E3]
TGITV (relative tumor inhibition rate) [2, 7]: 71.00%
Tumor volume, Administration in groups Day 19 [2, 7]: 590.66 ± 103.97 mm^3
TGITV (relative tumor inhibition rate) [2, 8]: 80.42%
Tumor volume, Administration in groups Day 19 [2, 8]: 447.12 ± 47.84 mm^3
PPB binding rate [3]: extremely high
specificity against PSMA [4]: high specificity
pkD (pKD=−Log KD, binding affinity to PSMA protein) [1]: 9.26

Structure (SMILES): O=C(O)CC[C@H](NC(=O)N[C@@H](CCCCNC(=O)[C@H](Cc1ccc2ccccc2c1)NC(=O)C1CC2(C1)CN(C(=O)CN1CCN(CC(=O)O)CCN(CC(=O)O)CCN(CC(=O)O)CC1)C2)C(=O)O)C(=O)O [Compound E22]
pkD (pKD=−Log KD, binding affinity to PSMA protein) [1]: 10.00

Structure (SMILES): O=C(O)CC[C@H](NC(=O)N[C@@H](CCCCNC(=O)[C@H](Cc1ccc2ccccc2c1)NC(=O)C1CCC(NC(=O)CN2CCN(CC(=O)O)CCN(CC(=O)O)CCN(CC(=O)O)CC2)CC1)C(=O)O)C(=O)O (stereo partly shown) [Compound E26]
lipophilicity (Log P) compared with the reference compound PSMA-617 [5]: better lipophilicity
cell binding ability [6]: excellent cell binding ability
pkD (pKD=−Log KD, binding affinity to PSMA protein) [1]: 9.44

The next lines start with results.

Kd [1]: 0.269 nM
Structure (SMILES): O=C(O)CC[C@H](NC(=O)N[C@@H](CCCCNC(=O)[C@H](Cc1ccc2ccccc2c1)NC(=O)c1ccc2c(c1)CN(C(=O)CN1CCN(CC(=O)O)CCN(CC(=O)O)CCN(CC(=O)O)CC1)CC2)C(=O)O)C(=O)O [Compound E4]

pkD (pKD=−Log KD, binding affinity to PSMA protein) [1]: 9.49
Structure (SMILES): O=C(O)CC[C@H](NC(=O)N[C@@H](CCCCNC(=O)[C@H](Cc1ccc2ccccc2c1)NC(=O)C1C2CN(C(=O)CN3CCN(CC(=O)O)CCN(CC(=O)O)CCN(CC(=O)O)CC3)CC21)C(=O)O)C(=O)O (stereo partly shown) [Compound E8]

Kd [1]: 0.282 nM
Structure (SMILES): O=C(O)CC[C@H](NC(=O)NC(CCCCNC(=O)[C@H](Cc1ccc2ccccc2c1)NC(=O)C1CCC2(CC1)CCN(C(=O)CN1CCN(CC(=O)O)CCN(CC(=O)O)CCN(CC(=O)O)CC1)CC2)C(=O)O)C(=O)O (stereo partly shown) [Compound E9]

pkD (pKD=−Log KD, binding affinity to PSMA protein) [1]: 9.82
Structure (SMILES): O=C(O)CC[C@H](NC(=O)N[C@@H](CCCCNC(=O)[C@H](Cc1ccc2ccccc2c1)NC(=O)c1ccc2cc(NC(=O)CN3CCN(CC(=O)O)CCN(CC(=O)O)CCN(CC(=O)O)CC3)ccc2c1)C(=O)O)C(=O)O [Compound E21]

pkD (pKD=−Log KD, binding affinity to PSMA protein) [1]: 10.15
Structure (SMILES): O=C(O)CC[C@H](NC(=O)N[C@@H](CCCCNC(=O)[C@H](Cc1ccc2ccccc2c1)NC(=O)c1cnc2cc(NC(=O)CN3CCN(CC(=O)O)CCN(CC(=O)O)CCN(CC(=O)O)CC3)ccc2c1)C(=O)O)C(=O)O [Compound E25]

Kd [1]: 0.00204 nM
Structure (SMILES): O=C(O)CC[C@H](NC(=O)N[C@@H](CCCCNC(=O)[C@H](Cc1ccc2ccccc2c1)NC(=O)[C@H]1CC[C@H](CNC(=O)CN2CCN(CC(=O)O)CCN(CC(=O)O)CCN(CC(=O)O)CC2)CC1)C(=O)O)C(=O)O [PSMA-617, reference compound]
TGITV (relative tumor inhibition rate) [2, 7]: 15.49%
Tumor volume, Administration in groups Day 19 [2, 7]: 1,480.09 ± 446.83 mm^3
TGITV (relative tumor inhibition rate) [2, 8]: 21.18%
Tumor volume, Administration in groups Day 19 [2, 8]: 1,389.81 ± 598.96 mm^3
